Results reported in the NIST ThermoML archive (doi:10.1021/je300692s).
± gives the expanded uncertainty stated by the source.

Assay: activity coefficient (dimensionless); of the first substance listed, at infinite dilution; xn = mol fraction of the nth substance listed
Conditions: 101 kPa, Liquid, Chromatography, x1 = 0

Structure (SMILES)	activity coefficient (322.6 K)	activity coefficient (332.5 K)	activity coefficient (342.8 K)	activity coefficient (323 K)	activity coefficient (333 K)	activity coefficient (343.1 K)	activity coefficient (322.9 K)
CCCC(C)=O [pentan-2-one] + CCCCCCCCCC[N+]1(C)CCCC1.O=S(=O)([N-]S(=O)(=O)C(F)(F)F)C(F)(F)F	0.52 ± 0.06	0.53 ± 0.06	0.54 ± 0.06				
CCCC(C)=O [pentan-2-one] + CCCCCCCC[N+]1(C)CCCC1.O=S(=O)([N-]S(=O)(=O)C(F)(F)F)C(F)(F)F				0.49 ± 0.05	0.51 ± 0.06	0.48 ± 0.05	
CCCC(C)=O [pentan-2-one] + CCCCCC[N+]1(C)CCCC1.O=S(=O)([N-]S(=O)(=O)C(F)(F)F)C(F)(F)F					0.65 ± 0.07	0.66 ± 0.07	0.59 ± 0.06
CCC(=O)CC [pentan-3-one] + CCCCCCCCCC[N+]1(C)CCCC1.O=S(=O)([N-]S(=O)(=O)C(F)(F)F)C(F)(F)F	0.47 ± 0.05	0.48 ± 0.05	0.5 ± 0.06				
CCC(=O)CC [pentan-3-one] + CCCCCCCC[N+]1(C)CCCC1.O=S(=O)([N-]S(=O)(=O)C(F)(F)F)C(F)(F)F				0.45 ± 0.05	0.47 ± 0.05	0.44 ± 0.05	
CCC(=O)CC [pentan-3-one] + CCCCCC[N+]1(C)CCCC1.O=S(=O)([N-]S(=O)(=O)C(F)(F)F)C(F)(F)F					0.6 ± 0.06	0.62 ± 0.07	0.47 ± 0.05
CCCO [propan-1-ol] + CCCCCCCCCC[N+]1(C)CCCC1.O=S(=O)([N-]S(=O)(=O)C(F)(F)F)C(F)(F)F	1.62 ± 0.17	1.47 ± 0.15	1.32 ± 0.14				
CCCO [propan-1-ol] + CCCCCCCC[N+]1(C)CCCC1.O=S(=O)([N-]S(=O)(=O)C(F)(F)F)C(F)(F)F				1.49 ± 0.15	1.29 ± 0.13	1.14 ± 0.12	
CCCO [propan-1-ol] + CCCCCC[N+]1(C)CCCC1.O=S(=O)([N-]S(=O)(=O)C(F)(F)F)C(F)(F)F					1.64 ± 0.17	1.49 ± 0.15	1.72 ± 0.18
CC(C)O [propan-2-ol] + CCCCCCCCCC[N+]1(C)CCCC1.O=S(=O)([N-]S(=O)(=O)C(F)(F)F)C(F)(F)F	1.52 ± 0.16	1.38 ± 0.14	1.25 ± 0.13				
CC(C)O [propan-2-ol] + CCCCCCCC[N+]1(C)CCCC1.O=S(=O)([N-]S(=O)(=O)C(F)(F)F)C(F)(F)F				1.4 ± 0.14	1.27 ± 0.13	1.06 ± 0.11	
CC(C)O [propan-2-ol] + CCCCCC[N+]1(C)CCCC1.O=S(=O)([N-]S(=O)(=O)C(F)(F)F)C(F)(F)F					1.53 ± 0.16	1.4 ± 0.14	
c1ccncc1 [pyridine] + CCCCCCCCCC[N+]1(C)CCCC1.O=S(=O)([N-]S(=O)(=O)C(F)(F)F)C(F)(F)F	0.47 ± 0.05	0.47 ± 0.05	0.47 ± 0.05				
c1ccncc1 [pyridine] + CCCCCCCC[N+]1(C)CCCC1.O=S(=O)([N-]S(=O)(=O)C(F)(F)F)C(F)(F)F				0.42 ± 0.05	0.39 ± 0.05	0.41 ± 0.05	
c1ccncc1 [pyridine] + CCCCCC[N+]1(C)CCCC1.O=S(=O)([N-]S(=O)(=O)C(F)(F)F)C(F)(F)F					0.52 ± 0.06	0.53 ± 0.06	0.52 ± 0.06
ClC(Cl)(Cl)Cl [tetrachloromethane] + CCCCCCCCCC[N+]1(C)CCCC1.O=S(=O)([N-]S(=O)(=O)C(F)(F)F)C(F)(F)F	1.32 ± 0.14	1.12 ± 0.11	1.31 ± 0.13				
ClC(Cl)(Cl)Cl [tetrachloromethane] + CCCCCCCC[N+]1(C)CCCC1.O=S(=O)([N-]S(=O)(=O)C(F)(F)F)C(F)(F)F				1.39 ± 0.14	1.3 ± 0.13	1.15 ± 0.12	
ClC(Cl)(Cl)Cl [tetrachloromethane] + CCCCCC[N+]1(C)CCCC1.O=S(=O)([N-]S(=O)(=O)C(F)(F)F)C(F)(F)F					1.85 ± 0.19	1.86 ± 0.19	1.78 ± 0.19
c1ccsc1 [thiophene] + CCCCCCCCCC[N+]1(C)CCCC1.O=S(=O)([N-]S(=O)(=O)C(F)(F)F)C(F)(F)F	0.6 ± 0.06	0.6 ± 0.06	0.61 ± 0.07				
c1ccsc1 [thiophene] + CCCCCCCC[N+]1(C)CCCC1.O=S(=O)([N-]S(=O)(=O)C(F)(F)F)C(F)(F)F				0.57 ± 0.06	0.55 ± 0.06	0.53 ± 0.06	
c1ccsc1 [thiophene] + CCCCCC[N+]1(C)CCCC1.O=S(=O)([N-]S(=O)(=O)C(F)(F)F)C(F)(F)F					0.71 ± 0.07	0.72 ± 0.08	0.7 ± 0.07
Cc1ccccc1 [toluene] + CCCCCCCCCC[N+]1(C)CCCC1.O=S(=O)([N-]S(=O)(=O)C(F)(F)F)C(F)(F)F	0.77 ± 0.08	0.78 ± 0.08	0.8 ± 0.08				
Cc1ccccc1 [toluene] + CCCCCCCC[N+]1(C)CCCC1.O=S(=O)([N-]S(=O)(=O)C(F)(F)F)C(F)(F)F				0.76 ± 0.08	0.78 ± 0.08	0.74 ± 0.08	
Cc1ccccc1 [toluene] + CCCCCC[N+]1(C)CCCC1.O=S(=O)([N-]S(=O)(=O)C(F)(F)F)C(F)(F)F					1.01 ± 0.1	1.04 ± 0.11	1 ± 0.1
ClC(Cl)Cl [trichloromethane] + CCCCCCCCCC[N+]1(C)CCCC1.O=S(=O)([N-]S(=O)(=O)C(F)(F)F)C(F)(F)F	0.39 ± 0.05	0.39 ± 0.05	0.41 ± 0.05				
ClC(Cl)Cl [trichloromethane] + CCCCCCCC[N+]1(C)CCCC1.O=S(=O)([N-]S(=O)(=O)C(F)(F)F)C(F)(F)F				0.56 ± 0.06	0.58 ± 0.06	0.53 ± 0.06	
ClC(Cl)Cl [trichloromethane] + CCCCCC[N+]1(C)CCCC1.O=S(=O)([N-]S(=O)(=O)C(F)(F)F)C(F)(F)F					0.72 ± 0.08	0.74 ± 0.08	0.68 ± 0.07
CCCCCCCCCCC [undecane] + CCCCCCCCCC[N+]1(C)CCCC1.O=S(=O)([N-]S(=O)(=O)C(F)(F)F)C(F)(F)F	11.7 ± 1.2	11.2 ± 1.2	10.7 ± 1.1				
CCCCCCCCCCC [undecane] + CCCCCCCC[N+]1(C)CCCC1.O=S(=O)([N-]S(=O)(=O)C(F)(F)F)C(F)(F)F				16.8 ± 1.8	15.6 ± 1.6	14.6 ± 1.5	
CCCCCCCCCCC [undecane] + CCCCCC[N+]1(C)CCCC1.O=S(=O)([N-]S(=O)(=O)C(F)(F)F)C(F)(F)F					31 ± 3.3	30.1 ± 3.2	34.4 ± 3.6
